Values of other authors in patent US5554621A, “Dihydropyridine NPY antagonists: nitrogen heterocyclic derivatives” (Bristol-Myers Squibb Company, priority 1995, dated 1996).
One block for each molecule: values may come before it.

Tests used:
[1] = tested on: NPY-induced pressor response; settings: pithed rat
[2] = tested on: NPY-induced increase in intracellular Ca++ in SK-N-Mc cells
[3] = tested on: NPY-induced contractions in guinea pig basilar artery
3H-NPY in rat brain = settings: read-out: IC50 (displacement of 3H-NPY)
NPY1 = biological target: T1, NPY1 (Rattus norvegicus, UniProt P21555)
T1 construct: vasoconstrictive activity of the NPY1 agonist
T1 sequence (P21555 1-382): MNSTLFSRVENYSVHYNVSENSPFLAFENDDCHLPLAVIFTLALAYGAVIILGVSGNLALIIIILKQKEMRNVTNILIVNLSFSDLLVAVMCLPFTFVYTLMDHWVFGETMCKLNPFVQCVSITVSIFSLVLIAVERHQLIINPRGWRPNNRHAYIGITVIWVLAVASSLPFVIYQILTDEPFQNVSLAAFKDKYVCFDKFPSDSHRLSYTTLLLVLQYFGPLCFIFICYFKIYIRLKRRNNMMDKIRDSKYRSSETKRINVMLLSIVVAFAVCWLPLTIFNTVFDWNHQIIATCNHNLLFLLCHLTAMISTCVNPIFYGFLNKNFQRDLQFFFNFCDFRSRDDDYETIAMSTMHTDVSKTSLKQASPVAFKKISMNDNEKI

Y2 receptor = biological target: T2, Y2 receptor (Rattus norvegicus, UniProt Q9ERC0); settings: functional selectivity for Y2 receptor
T2 sequence (Q9ERC0 1-381): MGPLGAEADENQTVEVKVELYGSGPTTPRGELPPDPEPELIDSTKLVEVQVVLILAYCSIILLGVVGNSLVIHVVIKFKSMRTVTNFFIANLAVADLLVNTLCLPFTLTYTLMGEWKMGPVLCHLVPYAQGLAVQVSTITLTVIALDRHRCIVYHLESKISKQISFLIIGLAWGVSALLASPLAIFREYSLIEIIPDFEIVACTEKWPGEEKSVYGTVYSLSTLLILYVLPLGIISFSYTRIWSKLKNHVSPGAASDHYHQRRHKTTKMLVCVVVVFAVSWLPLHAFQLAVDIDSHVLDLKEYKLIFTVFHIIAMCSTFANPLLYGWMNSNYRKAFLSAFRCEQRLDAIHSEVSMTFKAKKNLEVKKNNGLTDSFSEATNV

[4] = tested on: I-125 labeled NPY and PYY in human neuroblastoma cells
[5] = tested on: NPY-related increases in diastolic blood pressure; settings: anesthetized guinea pig

SMILES: N=C(N)NCCC[C@@H](NC(=O)C(c1ccccc1)c1ccccc1)C(=O)NCc1ccc(O)cc1 [BIBP 3226]
- Antagonism of NPY-induced pressor response [1]: antagonizing
- Antagonism of NPY-induced increase in intracellular Ca++ [2]: antagonized

SMILES: O=P(O)(O)O[C@@H]1[C@H](OP(=O)(O)O)[C@H](O)[C@@H](O)[C@H](O)[C@H]1OP(=O)(O)O [D-Myo-inositol-1,2,6-triphosphate]
- Antagonism of NPY-induced contractions [3]: potent but non-competitive antagonist

- IC50 (3H-NPY in rat brain): 18.4 µM
- Effect on vasoconstrictive activity of NPY1 agonist [Leu31, Pro34]NPY (NPY1): no effect
- Effect against NPY2 agonist NPY13-36 (Y2 receptor): antagonized the effect
SMILES: N=C(N)N(CCCCCCNCc1ccc2ccccc2c1)CCCCCCN(CCCCCCNCc1ccc2ccccc2c1)C(=N)N [Example 6b]
- Functional antagonism (rat femoral artery): functional antagonism

SMILES: CN(C)CC1CCC(CNC(=N)c2ccc(CC(NC(=O)C(Cc3ccccc3)NS(=O)(=O)c3ccc4ccccc4c3)C(=O)N3CCCC3)cc2)CC1 (stereo not drawn) [SR 120819A]
- Displacement of I-125 labeled NPY and PYY [4]: displacing
- Antagonism of NPY-related increases in diastolic blood pressure [5]: antagonized
